Experiments:
HT-29 [1] = assay: cells; conditions: Homo sapiens, HT-29, 72 h
Description: Cytotoxicity against human HT-29 cells assessed as cell growth inhibition after 72 hrs by MTT assay

cells [2] = conditions: Homo sapiens, MKN-45, 72 h
Description: Cytotoxicity against human MKN45 cells assessed as cell growth inhibition after 72 hrs by MTT assay

cells [3] = conditions: Homo sapiens, NCI-H460, 72 h
Description: Cytotoxicity against human H460 cells assessed as cell growth inhibition after 72 hrs by MTT assay

[4] = target: Hepatocyte growth factor receptor (Homo sapiens, UniProt P08581); assay: Inhibition of cMet (unknown origin) using poly (Glu, Tyr) 4:1 as substrate after 30 mins by HTRF assay
A549 = assay: Cytotoxicity against human A549 cells assessed as cell growth inhibition after 72 hrs by MTT assay; format: functional, cell-based; conditions: A549, 72 h
[5] = Cytotoxicity against human U87MG cells assessed as cell growth inhibition after 72 hrs by MTT assay; format: functional, cell-based, U-87MG ATCC; conditions: U-87 MG
[6] = target: Epidermal growth factor receptor (Homo sapiens, UniProt P00533); assay: Inhibition of EGFR (unknown origin) using poly (Glu, Tyr) 4:1 as substrate after 30 mins by HTRF assay
HT-29 [7] = assay: Potency index, ratio of foretinib IC50 to compound IC50 for human HT-29 cells; format: functional
[8] = target: T1, Receptor-type tyrosine-protein kinase FLT3 (Homo sapiens, UniProt P36888); assay: Inhibition of FLT3 (unknown origin) using poly (Glu, Tyr) 4:1 as substrate after 30 mins by HTRF assay
T1 sequence (P36888 whole entry): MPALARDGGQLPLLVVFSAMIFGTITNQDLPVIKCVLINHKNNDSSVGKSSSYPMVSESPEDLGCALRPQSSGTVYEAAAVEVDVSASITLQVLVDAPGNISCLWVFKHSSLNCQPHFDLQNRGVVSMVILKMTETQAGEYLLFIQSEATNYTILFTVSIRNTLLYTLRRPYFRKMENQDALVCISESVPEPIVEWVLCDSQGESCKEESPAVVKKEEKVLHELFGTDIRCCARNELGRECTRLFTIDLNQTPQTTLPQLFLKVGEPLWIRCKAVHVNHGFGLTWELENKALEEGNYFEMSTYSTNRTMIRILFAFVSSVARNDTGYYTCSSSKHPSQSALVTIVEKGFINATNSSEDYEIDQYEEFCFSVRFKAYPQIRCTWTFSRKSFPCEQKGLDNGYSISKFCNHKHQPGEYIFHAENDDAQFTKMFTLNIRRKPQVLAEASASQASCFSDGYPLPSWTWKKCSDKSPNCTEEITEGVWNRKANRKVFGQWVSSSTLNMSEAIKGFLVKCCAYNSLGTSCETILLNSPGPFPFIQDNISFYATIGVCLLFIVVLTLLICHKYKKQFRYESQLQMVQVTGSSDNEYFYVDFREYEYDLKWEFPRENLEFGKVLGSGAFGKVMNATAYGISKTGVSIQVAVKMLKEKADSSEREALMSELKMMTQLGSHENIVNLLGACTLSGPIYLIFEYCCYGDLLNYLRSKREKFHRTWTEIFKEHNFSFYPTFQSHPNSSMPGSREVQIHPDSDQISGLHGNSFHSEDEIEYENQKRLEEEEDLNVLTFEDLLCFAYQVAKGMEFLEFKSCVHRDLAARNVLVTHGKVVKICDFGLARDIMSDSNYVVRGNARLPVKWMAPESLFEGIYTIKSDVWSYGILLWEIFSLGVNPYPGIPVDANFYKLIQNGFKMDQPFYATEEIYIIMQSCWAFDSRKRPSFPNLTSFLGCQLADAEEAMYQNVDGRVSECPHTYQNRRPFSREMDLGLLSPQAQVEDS

U-87 MG = assay: Potency index, ratio of foretinib IC50 to compound IC50 for human U87MG cells; format: functional, U-87MG ATCC
[9] = Potency index, ratio of foretinib IC50 to compound IC50 for human H460 cells; format: functional
[10] = target: Mast/stem cell growth factor receptor Kit (Homo sapiens, UniProt P10721); assay: Inhibition of cKIT (unknown origin) using poly (Glu, Tyr) 4:1 as substrate after 30 mins by HTRF assay
Sequence of Mast/stem cell growth factor receptor Kit (P10721 whole entry): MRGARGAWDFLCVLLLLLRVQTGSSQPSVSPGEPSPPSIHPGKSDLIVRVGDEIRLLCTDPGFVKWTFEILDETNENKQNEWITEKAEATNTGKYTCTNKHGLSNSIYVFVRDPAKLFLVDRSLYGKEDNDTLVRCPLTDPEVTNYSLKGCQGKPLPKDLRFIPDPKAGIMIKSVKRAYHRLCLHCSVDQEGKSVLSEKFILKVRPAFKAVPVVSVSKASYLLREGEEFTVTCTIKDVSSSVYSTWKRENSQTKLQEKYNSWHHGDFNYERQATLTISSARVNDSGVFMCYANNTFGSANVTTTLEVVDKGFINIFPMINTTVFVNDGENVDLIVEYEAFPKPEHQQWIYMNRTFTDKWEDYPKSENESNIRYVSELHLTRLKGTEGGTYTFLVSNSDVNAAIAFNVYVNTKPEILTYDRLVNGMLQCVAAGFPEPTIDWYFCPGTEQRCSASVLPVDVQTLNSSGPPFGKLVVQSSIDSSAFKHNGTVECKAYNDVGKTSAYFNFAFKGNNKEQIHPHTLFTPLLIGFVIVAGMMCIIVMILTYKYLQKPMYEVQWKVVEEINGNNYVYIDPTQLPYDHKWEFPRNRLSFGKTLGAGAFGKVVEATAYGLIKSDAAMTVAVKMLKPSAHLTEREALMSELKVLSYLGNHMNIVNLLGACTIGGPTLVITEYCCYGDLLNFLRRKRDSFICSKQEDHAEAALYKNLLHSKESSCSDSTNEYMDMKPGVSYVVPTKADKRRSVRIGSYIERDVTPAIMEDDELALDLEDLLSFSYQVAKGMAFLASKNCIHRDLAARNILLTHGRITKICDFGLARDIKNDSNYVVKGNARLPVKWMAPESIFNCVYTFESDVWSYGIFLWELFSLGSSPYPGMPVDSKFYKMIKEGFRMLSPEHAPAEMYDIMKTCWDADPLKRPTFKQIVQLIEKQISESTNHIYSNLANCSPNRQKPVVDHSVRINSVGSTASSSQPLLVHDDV

[11] = target: Vascular endothelial growth factor receptor 2 (Homo sapiens, UniProt P35968); assay: Inhibition of VEGFR-2 (unknown origin) using poly (Glu, Tyr) 4:1 as substrate after 30 mins by HTRF assay
Sequence of Vascular endothelial growth factor receptor 2 (P35968 whole entry): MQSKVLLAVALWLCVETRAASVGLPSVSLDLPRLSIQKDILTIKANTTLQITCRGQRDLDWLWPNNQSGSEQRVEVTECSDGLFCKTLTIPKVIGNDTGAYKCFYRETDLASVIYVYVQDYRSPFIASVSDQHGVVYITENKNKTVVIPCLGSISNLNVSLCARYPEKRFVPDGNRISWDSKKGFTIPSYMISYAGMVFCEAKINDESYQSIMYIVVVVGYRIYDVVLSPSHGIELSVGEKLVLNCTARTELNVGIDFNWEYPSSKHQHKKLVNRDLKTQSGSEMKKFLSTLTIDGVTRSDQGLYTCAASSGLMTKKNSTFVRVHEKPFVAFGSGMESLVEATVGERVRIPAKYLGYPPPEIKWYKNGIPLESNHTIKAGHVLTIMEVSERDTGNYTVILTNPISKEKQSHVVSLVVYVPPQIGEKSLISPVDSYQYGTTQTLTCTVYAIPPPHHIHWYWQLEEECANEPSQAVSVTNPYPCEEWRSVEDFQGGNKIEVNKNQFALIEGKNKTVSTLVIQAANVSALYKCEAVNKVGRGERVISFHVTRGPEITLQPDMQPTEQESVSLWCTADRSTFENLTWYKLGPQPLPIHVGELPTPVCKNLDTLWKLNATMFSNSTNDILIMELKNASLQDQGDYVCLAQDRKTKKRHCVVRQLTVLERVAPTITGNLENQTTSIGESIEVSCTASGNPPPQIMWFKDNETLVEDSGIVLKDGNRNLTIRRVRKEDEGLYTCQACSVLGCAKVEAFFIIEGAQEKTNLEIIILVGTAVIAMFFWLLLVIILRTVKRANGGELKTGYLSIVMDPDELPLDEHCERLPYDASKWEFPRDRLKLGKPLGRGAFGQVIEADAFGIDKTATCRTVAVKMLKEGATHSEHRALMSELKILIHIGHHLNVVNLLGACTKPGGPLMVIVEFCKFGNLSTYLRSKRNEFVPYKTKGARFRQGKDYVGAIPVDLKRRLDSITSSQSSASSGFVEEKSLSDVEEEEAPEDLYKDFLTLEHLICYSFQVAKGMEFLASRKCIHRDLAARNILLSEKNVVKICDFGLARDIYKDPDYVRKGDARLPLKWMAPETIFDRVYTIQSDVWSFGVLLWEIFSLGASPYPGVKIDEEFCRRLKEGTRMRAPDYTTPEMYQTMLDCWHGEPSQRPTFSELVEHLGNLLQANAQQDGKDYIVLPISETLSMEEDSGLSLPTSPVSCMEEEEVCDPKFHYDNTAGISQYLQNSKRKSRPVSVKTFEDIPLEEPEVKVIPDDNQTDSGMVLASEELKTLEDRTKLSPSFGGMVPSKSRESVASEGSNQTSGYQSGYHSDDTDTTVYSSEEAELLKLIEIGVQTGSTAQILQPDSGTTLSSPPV

[12] = target: Platelet-derived growth factor receptor beta (Homo sapiens, UniProt P09619); assay: Inhibition of PDGFRbeta (unknown origin) using poly (Glu, Tyr) 4:1 as substrate after 30 mins by HTRF assay
Sequence of Platelet-derived growth factor receptor beta (P09619 whole entry): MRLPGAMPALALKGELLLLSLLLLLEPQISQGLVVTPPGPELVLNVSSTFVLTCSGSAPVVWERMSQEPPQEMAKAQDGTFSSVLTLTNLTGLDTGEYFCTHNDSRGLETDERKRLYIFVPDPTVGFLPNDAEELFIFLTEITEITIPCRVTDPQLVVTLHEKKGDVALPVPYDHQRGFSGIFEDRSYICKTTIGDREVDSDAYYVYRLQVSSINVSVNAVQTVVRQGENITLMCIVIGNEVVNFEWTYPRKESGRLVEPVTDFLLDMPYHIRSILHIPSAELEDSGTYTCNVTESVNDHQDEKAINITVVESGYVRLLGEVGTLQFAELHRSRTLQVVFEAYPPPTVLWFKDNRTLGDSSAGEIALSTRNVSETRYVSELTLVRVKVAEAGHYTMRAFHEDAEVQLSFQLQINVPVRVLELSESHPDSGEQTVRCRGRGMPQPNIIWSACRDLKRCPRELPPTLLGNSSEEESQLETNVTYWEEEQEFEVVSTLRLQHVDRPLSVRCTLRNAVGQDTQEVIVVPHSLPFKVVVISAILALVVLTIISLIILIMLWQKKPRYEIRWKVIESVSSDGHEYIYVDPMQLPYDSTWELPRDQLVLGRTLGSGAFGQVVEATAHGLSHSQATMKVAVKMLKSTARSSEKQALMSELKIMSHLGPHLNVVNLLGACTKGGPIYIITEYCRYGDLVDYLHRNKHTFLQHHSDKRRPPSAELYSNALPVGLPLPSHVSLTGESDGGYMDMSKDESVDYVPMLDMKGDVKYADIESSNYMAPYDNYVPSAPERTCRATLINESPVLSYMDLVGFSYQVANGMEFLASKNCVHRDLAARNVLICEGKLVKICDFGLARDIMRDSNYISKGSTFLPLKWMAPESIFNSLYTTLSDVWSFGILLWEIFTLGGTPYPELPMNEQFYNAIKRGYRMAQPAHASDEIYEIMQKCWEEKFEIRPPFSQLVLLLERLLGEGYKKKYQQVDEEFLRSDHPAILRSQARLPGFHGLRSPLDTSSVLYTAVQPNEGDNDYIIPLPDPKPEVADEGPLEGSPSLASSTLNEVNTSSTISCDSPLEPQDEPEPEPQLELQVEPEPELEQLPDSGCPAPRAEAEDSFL

Sequence of Hepatocyte growth factor receptor (P08581 whole entry): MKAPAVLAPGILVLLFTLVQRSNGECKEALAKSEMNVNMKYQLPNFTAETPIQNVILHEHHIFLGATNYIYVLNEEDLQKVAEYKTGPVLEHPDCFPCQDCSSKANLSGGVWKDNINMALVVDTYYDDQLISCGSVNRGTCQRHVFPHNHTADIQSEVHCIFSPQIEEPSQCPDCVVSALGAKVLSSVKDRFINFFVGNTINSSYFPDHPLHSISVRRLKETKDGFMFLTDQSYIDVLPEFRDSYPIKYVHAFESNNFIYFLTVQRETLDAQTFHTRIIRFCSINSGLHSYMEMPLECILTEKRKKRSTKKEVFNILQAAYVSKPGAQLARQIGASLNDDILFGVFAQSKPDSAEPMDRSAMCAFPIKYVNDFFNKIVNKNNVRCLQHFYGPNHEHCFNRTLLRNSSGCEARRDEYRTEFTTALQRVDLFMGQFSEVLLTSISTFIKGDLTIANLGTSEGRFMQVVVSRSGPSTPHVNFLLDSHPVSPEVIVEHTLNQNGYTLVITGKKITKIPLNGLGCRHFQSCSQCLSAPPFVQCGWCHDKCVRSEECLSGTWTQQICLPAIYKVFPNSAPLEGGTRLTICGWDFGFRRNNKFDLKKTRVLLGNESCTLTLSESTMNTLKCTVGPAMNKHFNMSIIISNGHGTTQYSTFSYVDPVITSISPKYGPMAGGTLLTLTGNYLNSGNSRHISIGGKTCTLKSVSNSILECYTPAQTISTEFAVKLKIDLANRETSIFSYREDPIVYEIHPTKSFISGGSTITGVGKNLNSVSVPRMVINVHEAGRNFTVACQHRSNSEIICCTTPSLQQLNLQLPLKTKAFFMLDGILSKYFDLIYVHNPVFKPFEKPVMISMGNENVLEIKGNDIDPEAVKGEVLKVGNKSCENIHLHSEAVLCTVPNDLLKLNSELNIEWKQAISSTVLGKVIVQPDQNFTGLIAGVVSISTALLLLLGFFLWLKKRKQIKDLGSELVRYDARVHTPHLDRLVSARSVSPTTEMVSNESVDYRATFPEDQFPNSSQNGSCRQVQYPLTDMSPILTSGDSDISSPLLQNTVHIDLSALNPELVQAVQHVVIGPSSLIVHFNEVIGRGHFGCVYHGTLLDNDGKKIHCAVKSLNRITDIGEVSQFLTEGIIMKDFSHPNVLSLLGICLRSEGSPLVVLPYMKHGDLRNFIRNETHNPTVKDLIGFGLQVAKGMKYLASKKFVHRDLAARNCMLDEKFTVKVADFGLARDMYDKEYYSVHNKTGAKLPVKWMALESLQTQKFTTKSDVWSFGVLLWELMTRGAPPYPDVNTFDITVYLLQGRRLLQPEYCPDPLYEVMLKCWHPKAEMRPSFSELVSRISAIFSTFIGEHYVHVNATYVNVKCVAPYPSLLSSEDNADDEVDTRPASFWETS

Structure (SMILES)	IC50 (HT-29 [1])	IC50 (cells [2])	IC50 (cells [3])	IC50 [4]	IC50 [6]	IC50 [8]	IC50 [10]	IC50 [11]	IC50 [12]	IC50 (A549)	IC50 [5]	Ratio IC50 (HT-29 [7])	Ratio IC50 (U-87 MG)	Ratio IC50 [9]
COc1cc2c(Oc3ccc(NC(=O)c4c(Cl)c5ccccc5n(-c5ccccc5)c4=O)cc3F)ccnc2cc1OCCCN1CCN(C)CC1	91 nM	120 nM	61 nM	1.75 nM										
COc1cc2c(Oc3ccc(NC(=O)c4c(Cl)c5ccccc5n(-c5ccccc5OC(F)(F)F)c4=O)cc3F)ccnc2cc1OCCCN1CCCC1	1500 nM	1400 nM	360 nM											
COc1cc2c(Oc3ccc(NC(=O)c4c(Cl)c5ccccc5n(-c5ccccc5F)c4=O)cc3F)ccnc2cc1OCCCN1CCN(C)CC1	170 nM	410 nM	270 nM							290 nM	1320 nM			
COc1cc2c(Oc3ccc(NC(=O)c4c(Cl)c5ccccc5n(-c5ccc(C)cc5)c4=O)cc3F)ccnc2cc1OCCCN1CCC(C)CC1	190 nM	120 nM	180 nM							350 nM	3200 nM			
COc1cc2c(Oc3ccc(NC(=O)c4c(Cl)c5ccccc5n(-c5ccccc5)c4=O)cc3F)ccnc2cc1OCCCN1CCC(C)CC1	350 nM	460 nM	150 nM	6.84 nM						390 nM	1420 nM			
COc1cc2c(Oc3ccc(NC(=O)c4c(Cl)c5ccccc5n(-c5ccccc5OC)c4=O)cc3F)ccnc2cc1OCCCN1CCN(C)CC1	530 nM	120 nM	150 nM											
COc1cc2c(Oc3ccc(NC(=O)c4c(Cl)c5ccccc5n(-c5ccccc5OC)c4=O)cc3F)ccnc2cc1OCCCN1CCOCC1	1400 nM	1260 nM	1200 nM											
COc1cc2c(Oc3ccc(NC(=O)c4c(Cl)c5ccccc5n(-c5ccccc5OC(F)(F)F)c4=O)cc3F)ccnc2cc1OCCCN1CCC(C)CC1	570 nM	310 nM	380 nM											
COc1cc2c(Oc3ccc(NC(=O)c4c(Cl)c5ccccc5n(-c5ccccc5F)c4=O)cc3F)ccnc2cc1OCCCN1CCOCC1	1210 nM	740 nM	580 nM											
COc1cc2c(Oc3ccc(NC(=O)c4c(Cl)c5ccccc5n(-c5ccccc5)c4=O)cc3F)ccnc2cc1OCCCN1CCOCC1	460 nM	310 nM	260 nM							930 nM	4800 nM			
COc1cc2c(Oc3ccc(NC(=O)c4c(Cl)c5ccccc5n(-c5cc(C)cc(C)c5)c4=O)cc3F)ccnc2cc1OCCCN1CCCC1	300 nM	1200 nM	620 nM											
COc1cc2c(Oc3ccc(NC(=O)c4c(Cl)c5ccccc5n(-c5ccc(C)cc5)c4=O)cc3F)ccnc2cc1OCCCN1CCN(C)CC1	150 nM	120 nM	120 nM							310 nM	1060 nM			

More lines, main results first:

IC50 (HT-29 [1])	IC50 (cells [2])	IC50 (cells [3])	IC50 [4]	IC50 [6]	IC50 [8]	IC50 [10]	IC50 [11]	IC50 [12]	Structure (SMILES)	IC50 (A549)	IC50 [5]	Ratio IC50 (HT-29 [7])	Ratio IC50 (U-87 MG)	Ratio IC50 [9]
390 nM	210 nM	210 nM							COc1cc2c(Oc3ccc(NC(=O)c4c(Cl)c5ccccc5n(-c5ccccc5)c4=O)cc3F)ccnc2cc1OCCCN1CCCC1	810 nM	1600 nM			
12600 nM	420 nM	580 nM							COc1cc2c(Oc3ccc(NC(=O)c4c(Cl)c5ccccc5n(-c5ccccc5OC)c4=O)cc3F)ccnc2cc1OCCCN1CCCCC1					
520 nM	480 nM	170 nM							COc1cc2c(Oc3ccc(NC(=O)c4c(Cl)c5ccccc5n(-c5ccc(C)cc5)c4=O)cc3F)ccnc2cc1OCCCN1CCCCC1					
41600 nM	280 nM	140 nM	18.4 nM						COc1cc2c(Oc3ccc(NC(=O)c4c(Cl)c5ccccc5n(-c5ccccc5)c4=O)cc3F)ccnc2cc1OCCCN1CCCCC1	510 nM	1300 nM			
150 nM	570 nM	120 nM	12.5 nM						COc1cc2c(Oc3ccc(NC(=O)c4c(Cl)c5ccccc5n(-c5ccc(F)cc5)c4=O)cc3F)ccnc2cc1OCCCN1CCCC1	720 nM	640 nM			
68 nM	160 nM	31 nM	1.21 nM	> 100000 nM	2.15 nM	363 nM	543 nM	526 nM	COc1cc2c(Oc3ccc(NC(=O)c4c(Cl)c5ccccc5n(-c5ccc(F)cc5)c4=O)cc3F)ccnc2cc1OCCCN1CCN(C)CC1	110 nM	520 nM	2.4	2.1	6.1
390 nM	780 nM	850 nM							COc1cc2c(Oc3ccc(NC(=O)c4c(Cl)c5ccccc5n(-c5ccc(C)cc5)c4=O)cc3F)ccnc2cc1OCCCN1CCOCC1	830 nM	5160 nM			
290 nM	310 nM	110 nM	12.2 nM						COc1cc2c(Oc3ccc(NC(=O)c4c(Cl)c5ccccc5n(-c5ccc(F)cc5)c4=O)cc3F)ccnc2cc1OCCCN1CCCCC1	160 nM	1600 nM			
110 nM	160 nM	89 nM	3.26 nM						COc1cc2c(Oc3ccc(NC(=O)c4c(Cl)c5ccccc5n(-c5ccc(F)cc5)c4=O)cc3F)ccnc2cc1OCCCN1CCC(C)CC1	990 nM	1920 nM			
480 nM	900 nM	230 nM							COc1cc2c(Oc3ccc(NC(=O)c4c(Cl)c5ccccc5n(-c5ccc(C)cc5)c4=O)cc3F)ccnc2cc1OCCCN1CCCC1	230 nM	3240 nM			
140 nM	210 nM	61 nM	5.32 nM						COc1cc2c(Oc3ccc(NC(=O)c4c(Cl)c5ccccc5n(-c5ccc(F)cc5)c4=O)cc3F)ccnc2cc1OCCCN1CCOCC1	110 nM	8500 nM			

Reference: ChEMBL document CHEMBL3779856, “Synthesis and antiproliferative activity of 6,7-disubstituted-4-phenoxyquinoline derivatives bearing the 2-oxo-4-chloro-1,2-dihydroquinoline-3-carboxamide moiety” (Bioorg Med Chem Lett, 2016)
